Numbers after ± are expanded uncertainties.
Test: xn = mol fraction of the nth substance listed
Settings: 101 kPa, Liquid; for mass density: Vibrating tube method; for viscosity: Falling or rolling sphere viscometry

CCCC[NH3+].O=[N+]([O-])[O-] [n-butylammonium nitrate] + CO
Settings	mass density, 303.15 K [kg/m3]	mass density, 308.15 K [kg/m3]	mass density, 313.15 K [kg/m3]	viscosity, 308.15 K [mPa·s]	viscosity, 313.15 K [mPa·s]
x1 = 0.0999	876.67 ± 0.19	872.57 ± 0.19	868.45 ± 0.2	1.119 ± 0.01	1.014 ± 0.009
x1 = 0.1998	937.17 ± 0.31	933.38 ± 0.31	929.59 ± 0.31	2.058 ± 0.02	1.893 ± 0.019
x1 = 0.3012	979.82 ± 0.57	976.23 ± 0.57	972.64 ± 0.57	3.555 ± 0.041	3.229 ± 0.037
x1 = 0.4005	1009.64 ± 0.97	1006.18 ± 0.96	1002.74 ± 0.95	6.242 ± 0.083	5.584 ± 0.074
x1 = 0.5015	1033.17 ± 1.5	1029.82 ± 1.5	1026.48 ± 1.5	9.779 ± 0.15	8.66 ± 0.13
x1 = 0.6507	1058.95 ± 2.6	1055.7 ± 2.6	1052.47 ± 2.6	17.77 ± 0.33	15.5 ± 0.28
x1 = 0.8007	1078.78 ± 4.1	1075.61 ± 4	1072.46 ± 4	29.65 ± 0.64	25.41 ± 0.55
x1 = 0.9007	1089.88 ± 5.2	1086.74 ± 5.2	1083.63 ± 5.2	44.24 ± 1.1	37.21 ± 0.89
x1 = 1	1098.38 ± 6.5	1095.26 ± 6.5	1092.17 ± 6.5	60.25 ± 1.6	50.12 ± 1.3
